Laboratory results published in patent publication US10619138B2, “Herbicide-resistant hydroxyphenylpyruvate dioxygenases” (BASF SE, priority 2013, dated 2020).
“And” between values parts separate entries of the source, which are not always exact repeats. Equal entries are not always repeated.

Tests used:
[1] = molecular target: T1, Arabidopsis HPPD (SEQ ID NO: 42) (Arabidopsis thaliana, UniProt P93836); test: In vitro HPPD activity assay (HGA by HPLC), wildtype enzyme characterization; type: biochemical; settings: for TI (normalized tolerance index): normalized on Arabidopsis wild-type HPPD, reference enzyme
T1 construct: Arabidopsis (42); His tag; made in house; host or cells: E. coli BL21 (DE3)
T1 sequence (P93836 1-445): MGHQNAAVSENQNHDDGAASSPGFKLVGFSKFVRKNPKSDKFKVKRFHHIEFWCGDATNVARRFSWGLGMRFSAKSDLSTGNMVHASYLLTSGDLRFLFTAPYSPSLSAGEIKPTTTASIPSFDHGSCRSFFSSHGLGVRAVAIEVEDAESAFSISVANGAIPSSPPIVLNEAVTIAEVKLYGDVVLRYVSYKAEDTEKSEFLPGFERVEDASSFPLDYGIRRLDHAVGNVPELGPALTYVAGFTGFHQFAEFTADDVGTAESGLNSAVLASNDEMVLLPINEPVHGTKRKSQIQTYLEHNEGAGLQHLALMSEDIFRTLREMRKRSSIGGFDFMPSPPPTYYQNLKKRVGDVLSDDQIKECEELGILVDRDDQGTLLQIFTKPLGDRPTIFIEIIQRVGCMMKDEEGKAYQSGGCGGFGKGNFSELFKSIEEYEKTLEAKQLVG
Method: (§1) The activity assay for HPPD is based on the analysis of homogentisic acid by reversed phase HPLC.
(§2) The assay mixture can contain 150 mM potassium phosphate buffer pH 7.0, 50 mM L-ascorbic acid, 100 μM Catalase (Sigma-Aldrich), 1 μM FeSO4 and 0.2 units of purified HPPD enzyme in a total volume of 505 μl. 1 unit is defined as the amount of enzyme that is required to produce 1 nmol of HGA per minute at 20° C.
(§3) The reaction is allowed to proceed for 45 min at room temperature. The reaction is stopped by the addition of 50 μl of 4.5 M phosphoric acid. The sample is filtered using a […] pore size PVDF filtration device.
(§4) 5 μl of the cleared sample is analyzed on an UPLC HSS T3 column (particle size 1.8 μm, dimensions 2.1×50 mm; Waters) by isocratic elution using 90% 20 mM NaH2PO4 pH 2.2, 10% methanol (v/v).
(§5) HGA is detected electrochemically at 750 mV (mode: DC; polarity: positive) and quantified by integrating peak areas (Empower software; Waters).
Inhibitors are dissolved in DMSO (dimethylsulfoxide) to a concentration of 0.5 mM. From this stock solution serial five-fold dilutions are prepared in DMSO, which are used in the assay. The respective inhibitor solution accounts for 1% of the assay volume. […] Activities are normalized by setting the uninhibited enzyme activity to 100%. IC50 values are calculated using non-linear regression.
(§6) Using methods which are described in the above examples or well known in the art, purified, recombinant wildtype HPPD enzymes are characterized with respect to their kinetic properties and sensitivity towards HPPD inhibiting herbicides. Apparent michaelis constants (Km) and maximal reaction velocities (Vmax) are calculated by non-linear regression with the software GraphPad Prism 5 (GraphPad Software, La Jolla, USA) using a substrate inhibition model. […] Weighted means (by standard error) of Km and IC50 values are calculated from at least three independent experiments.
(§7) Field performance of the HPPD enzyme, which is used as a herbicide tolerance trait may depend not only on its lack of sensitivity towards HPPD inhibiting herbicides but also on its activity. To assess the potential performance of a herbicide tolerance trait a tolerance index (TI) is calculated using the following formula: […]
(§8) Easy comparison and ranking of each trait is enabled by normalizing tolerance indexes on Arabidopsis wild-type HPPD.

[2] = test system: Acidobacterium HPPD (SEQ ID NO: 30); test: In vitro HPPD activity assay, tolerance index; type: biochemical, Acidobacterium capsulatum; settings: normalized on Arabidopsis wild-type HPPD
Method: as §1, §2, §3, §4, §5
(§9) Inhibitors are dissolved in DMSO (dimethylsulfoxide) to a concentration of 0.5 mM. From this stock solution serial five-fold dilutions are prepared in DMSO, which are used in the assay. The respective inhibitor solution accounts for 1% of the assay volume. Thus, final inhibitor concentrations range from 5 μM to 320 pM, respectively. Activities are normalized by setting the uninhibited enzyme activity to 100%. IC50 values are calculated using non-linear regression.
as §6, with “experiments. The Cheng-Prusoff equation for competitive inhibition (Cheng, Y. C.; Prusoff, W. H. Biochem Pharmacol 1973, 22, 3099-3108) is used to calculate dissociation constants (Ki).” for “experiments.”
as §7, §8

[3] = test system: Microscilla HPPD (SEQ ID NO: 20); test: In vitro HPPD activity assay, tolerance index; type: biochemical, Microscilla marina; settings: normalized on Arabidopsis wild-type HPPD
Method: as §1, §2, §3, §4, §5, §9
as §6, with “experiments. The Cheng-Prusoff equation for competitive inhibition (Cheng, Y. C.; Prusoff, W. H. Biochem Pharmacol 1973, 22, 3099-3108) is used to calculate dissociation constants (Ki).” for “experiments.”
as §7, §8

[4] = test system: transgenic Arabidopsis plants expressing Acidobacterium HPPD; test: Greenhouse herbicide spray test, transgenic plants (T2); type: in vivo, Arabidopsis thaliana; settings: for Injury evaluation, scale 0-100% / tolerance of transgenic plants (in words): two weeks after treatment; for tolerance of transgenic plants (in words): doses 1.56-50 g/ha
Excerpt: (§10) Additionally, T1 and T2 transgenic Arabidopsis plants can be tested for improved tolerance to HPPD-inhibiting herbicides in greenhouse studies. Herbicide injury scoring is done 2-3 weeks after treatment and is rated on a scale of 0 to 100%, 0% being no injury and 100% being complete death.
(§11) Transgenic Arabidopsis plants were sprayed with a range of doses from 1.56-50 g/ha with HPPD-inhibiting herbicides and injury evaluations were taken two weeks after treatment. […] As depicted in Table 6, control plants are severely injured by all doses of herbicide applied, with at least 70% of leaf material being damaged at the lowest application rate. For example, transgenic plants expressing Scenedesmus HPPD have an excellent tolerance to all herbidcides tested. […] After application of Inhibitor 2, only 18% of leaf material was damaged resulting in a 5-fold tolerance compared to the WT at the highest application rate.

[5] = test system: transgenic Arabidopsis plants expressing Algoriphagus HPPD; test: as above; type: in vivo, Arabidopsis thaliana; settings: two weeks after treatment
Excerpt: as §10, §11

[6] = test system: transgenic Arabidopsis plants expressing Scenedesmus HPPD; test: as above; type: in vivo, Arabidopsis thaliana; settings: for Injury evaluation, scale 0-100% / tolerance of transgenic plants (in words): two weeks after treatment; for tolerance of transgenic plants (in words): doses 1.56-50 g/ha
Excerpt: as §10, §11

[7] = Acidobacterium HPPD Event 1, 3.125 g/ha
[8] = Acidobacterium HPPD Event 1, 6.25 g/ha
[9] = Acidobacterium HPPD Event 2, 3.125 g/ha
[10] = Acidobacterium HPPD Event 2, 6.25 g/ha
[11] = Algoriphagus HPPD Event 1, 3.125 g/ha
[12] = Algoriphagus HPPD Event 1, 6.25 g/ha
[13] = Algoriphagus HPPD Event 2, 3.125 g/ha
[14] = Algoriphagus HPPD Event 2, 6.25 g/ha
[15] = Scenedesmus HPPD Event 1, 3.125 g/ha
[16] = Scenedesmus HPPD Event 1, 6.25 g/ha
[17] = Scenedesmus HPPD Event 2, 3.125 g/ha
[18] = Scenedesmus HPPD Event 2, 6.25 g/ha
[19] = Acidobacterium HPPD Event 1, 12.5 g/ha
[20] = Acidobacterium HPPD Event 2, 12.5 g/ha
[21] = Algoriphagus HPPD Event 1, 12.5 g/ha
[22] = Algoriphagus HPPD Event 2, 12.5 g/ha
[23] = Scenedesmus HPPD Event 1, 12.5 g/ha
[24] = Scenedesmus HPPD Event 2, 12.5 g/ha

With `CS(=O)(=O)c1ccc(C(=O)C2C(=O)CCCC2=O)c([N+](=O)[O-])c1` [Inhibitor 2, 2-(4-methylsulfonyl-2-nitro-benzoyl)cyclohexane-1,3-dione] the “TI (normalized tolerance index)” value [1] was 1, the “TI (normalized tolerance index)” value [2] was 0.6 and the “TI (normalized tolerance index)” value [3] was 0.2. For the same molecule, the “Injury evaluation, scale 0-100%” value ([4]; Acidobacterium HPPD Event 1, 1.56 g/ha) was 8%, the “Injury evaluation, scale 0-100%” value [4, 7] was 8% and the “Injury evaluation, scale 0-100%” value [4, 8] was 45%. For the same molecule, the “Injury evaluation, scale 0-100%” value ([4]; Acidobacterium HPPD Event 2, 1.56 g/ha) was 10%, the “Injury evaluation, scale 0-100%” value [4, 9] was 33% and the “Injury evaluation, scale 0-100%” value [4, 10] was 55%. The leaf damage ([4]; at the lowest application rate, both events) was 8-10%, the “tolerance of transgenic plants (in words)” value (“tolerance … (in words)” below) [4] was “significantly increased tolerance” and the “Injury evaluation, scale 0-100%” value ([5]; Algoriphagus HPPD Event 1, 1.56 g/ha) was 48%. For the same molecule, the “Injury evaluation, scale 0-100%” value [5, 11] was 53%, the “Injury evaluation, scale 0-100%” value [5, 12] was 65% and the “Injury evaluation, scale 0-100%” value ([5]; Algoriphagus HPPD Event 2, 1.56 g/ha) was 45%. The “Injury evaluation, scale 0-100%” value [5, 13] was 60%, the “Injury evaluation, scale 0-100%” value [5, 14] was 75% and the “Injury evaluation, scale 0-100%” value ([6]; Scenedesmus HPPD Event 1, 1.56 g/ha) was 10%. For the same molecule, the “Injury evaluation, scale 0-100%” value [6, 15] was 13%, the “Injury evaluation, scale 0-100%” value [6, 16] was 18% and the “Injury evaluation, scale 0-100%” value ([6]; Scenedesmus HPPD Event 2, 1.56 g/ha) was 23%. The “Injury evaluation, scale 0-100%” value [6, 17] was 38%, the “Injury evaluation, scale 0-100%” value [6, 18] was 38% and the “tolerance compared to the WT” value ([6]; at the highest application rate) was 5 fold. The “tolerance … (in words)” value [6] was “outstanding tolerance”.

`CN(c1c(Cl)ccc(C2=C(O)c3ncccc3C(C)(C)S2(=O)=O)c1Cl)S(C)(=O)=O` [Inhibitor 4, N-[2,6-dichloro-3-(8-hydroxy-5,5-dimethyl-6,6-dioxo-thiopyrano[4,3-b]pyridin-7-yl)phenyl]-N-methyl-methanesulfonamide] was tested, and the Ki [1] was 29 nM, the “TI (normalized tolerance index)” value [1] was 1 and the “TI (tolerance index)” value ([1]; not normalized) was 23.8E−3. The “TI (normalized tolerance index)” value [2] was 64 and 64.3, the “TI (normalized tolerance index)” value [3] was 112.0 and the “Injury evaluation, scale 0-100%” value [4, 19] was 20%. For the same molecule, the “Injury evaluation, scale 0-100%” value ([4]; Acidobacterium HPPD Event 1, 25 g/ha) was 25%, the “Injury evaluation, scale 0-100%” value ([4]; Acidobacterium HPPD Event 1, 50 g/ha) was 35% and the “Injury evaluation, scale 0-100%” value [4, 20] was 23%. The “Injury evaluation, scale 0-100%” value ([4]; Acidobacterium HPPD Event 2, 25 g/ha) was 25%, the “Injury evaluation, scale 0-100%” value ([4]; Acidobacterium HPPD Event 2, 50 g/ha) was 60% and the leaf material harmed ([4]; after application of 12.5 g/ha, both events) was 20-23%. For the same molecule, the “tolerance … (in words)” value [4] was “not severly injured”, the “Injury evaluation, scale 0-100%” value [5, 21] was 40% and the “Injury evaluation, scale 0-100%” value ([5]; Algoriphagus HPPD Event 1, 25 g/ha) was 45%. The “Injury evaluation, scale 0-100%” value ([5]; Algoriphagus HPPD Event 1, 50 g/ha) was 50%, the “Injury evaluation, scale 0-100%” value [5, 22] was 33% and the “Injury evaluation, scale 0-100%” value ([5]; Algoriphagus HPPD Event 2, 25 g/ha) was 33%. For the same molecule, the “Injury evaluation, scale 0-100%” value ([5]; Algoriphagus HPPD Event 2, 50 g/ha) was 60%, the “Injury evaluation, scale 0-100%” value [6, 23] was 13% and the “Injury evaluation, scale 0-100%” value ([6]; Scenedesmus HPPD Event 1, 25 g/ha) was 18%. The “Injury evaluation, scale 0-100%” value ([6]; Scenedesmus HPPD Event 1, 50 g/ha) was 65%, the “Injury evaluation, scale 0-100%” value [6, 24] was 20% and the “Injury evaluation, scale 0-100%” value ([6]; Scenedesmus HPPD Event 2, 25 g/ha) was 25%. The “Injury evaluation, scale 0-100%” value ([6]; Scenedesmus HPPD Event 2, 50 g/ha) was 25% and the “tolerance … (in words)” value [6] was “outstanding tolerance”.

With `CSc1c(Cl)cc(F)c(C(=O)Nc2nnnn2C)c1Cl` [Inhibitor 11, 2,4-dichloro-6-fluoro-3-methylsulfanyl-N-(1-methyltetrazol-5-yl)benzamide] the “TI (normalized tolerance index)” value [1] was 1, the “TI (normalized tolerance index)” value [2] was 0.1 and the “TI (normalized tolerance index)” value [3] was 0.1. For the same molecule, the “Injury evaluation, scale 0-100%” value [4, 7] was 53%, the “Injury evaluation, scale 0-100%” value [4, 8] was 65% and the “Injury evaluation, scale 0-100%” value [4, 19] was 98%. For the same molecule, the “Injury evaluation, scale 0-100%” value [4, 9] was 58%, the “Injury evaluation, scale 0-100%” value [4, 10] was 93% and the “Injury evaluation, scale 0-100%” value [4, 20] was 98%. The “Injury evaluation, scale 0-100%” value [5, 11] was 55%, the “Injury evaluation, scale 0-100%” value [5, 12] was 73% and the “Injury evaluation, scale 0-100%” value [5, 21] was 98%. The “Injury evaluation, scale 0-100%” value [5, 13] was 68%, the “Injury evaluation, scale 0-100%” value [5, 14] was 90% and the “Injury evaluation, scale 0-100%” value [5, 22] was 97%. The “Injury evaluation, scale 0-100%” value [6, 15] was 13%, the “Injury evaluation, scale 0-100%” value [6, 16] was 15% and the “Injury evaluation, scale 0-100%” value [6, 23] was 33%. For the same molecule, the “Injury evaluation, scale 0-100%” value [6, 17] was 13%, the “Injury evaluation, scale 0-100%” value [6, 18] was 13% and the “Injury evaluation, scale 0-100%” value [6, 24] was 15%. For the same molecule, the “tolerance … (in words)” value [6] was “outstanding tolerance”.
